These results are taken from patent US8673906B2, “Chromenone derivatives” (AstraZeneca AB, priority 2010, dated 2014).

The assay addresses PI3Kβ (Homo sapiens (Human), UniProt P42338). Kind of assay: In vitro enzyme inhibition assay (Kinase Glo based enzyme activity assay). The note with it: Test (a), human recombinant enzyme; read-out: PI3Kβ inhibition, IC50. The format is biochemical. The method, then:
(a) In Vitro Enzyme Inhibition Assay
The inhibition of PI3Kβ, PI3Kα, PI3Kγ and PI3Kδ was evaluated in a Kinase Glo based enzyme activity assay using human recombinant enzymes. The assay measures depletion of ATP after incubation with enzyme, PIP2 and ATP plus compound. ATP at the end of the reaction is detected by addition of Kinase Glo reagent, in this the Ultra Glo™ luciferase (Promega) uses the ATP as a substrate to catalyze the mono-oxygenation of luciferin and the generation of light. A direct relationship exists between the luminescence measured with the Kinase-Glo Plus Reagent and the amount of ATP remaining in a completed kinase reaction and luminescence is inversely related to kinase activity. Twelve different compound concentrations were tested and raw data from the inhibition of PI3 Kb, PI3Kα, PI3Kγ and PI3Kδ was plotted versus inhibitor concentration.
Compounds in 100% DMSO were added to assay plates by acoustic dispensing. PI3Kβ was added in a Tris buffer (50 mM Tris pH7.4, 0.05% CHAPS, 2.1 mM DTT, and 10 mM MgCl2) and allowed to preincubate with compound for 20 minutes prior to addition of substrate solution containing PIP2 and ATP. The enzyme reaction was stopped after 80 minutes by the addition of Kinase Glo detection solution. Plates were left for 30 minutes at room temperature then read on a Pherastar Instrument (Luminescence ATP 384 program) setting gain on max well. The final concentration of DMSO, ATP and PIP2 in the assay were, 1%, 80 μM, and 80 μM respectively.
IC50 values were calculated using a log curve fitting to a non-linear regression package, fitting raw data to inhibitor concentration.
In general terms: In Kinase-Glo more light means more ATP remaining.

The term IC50 denotes the concentration that inhibits the measured activity by half.

Chain of PI3Kβ (P42338 whole entry): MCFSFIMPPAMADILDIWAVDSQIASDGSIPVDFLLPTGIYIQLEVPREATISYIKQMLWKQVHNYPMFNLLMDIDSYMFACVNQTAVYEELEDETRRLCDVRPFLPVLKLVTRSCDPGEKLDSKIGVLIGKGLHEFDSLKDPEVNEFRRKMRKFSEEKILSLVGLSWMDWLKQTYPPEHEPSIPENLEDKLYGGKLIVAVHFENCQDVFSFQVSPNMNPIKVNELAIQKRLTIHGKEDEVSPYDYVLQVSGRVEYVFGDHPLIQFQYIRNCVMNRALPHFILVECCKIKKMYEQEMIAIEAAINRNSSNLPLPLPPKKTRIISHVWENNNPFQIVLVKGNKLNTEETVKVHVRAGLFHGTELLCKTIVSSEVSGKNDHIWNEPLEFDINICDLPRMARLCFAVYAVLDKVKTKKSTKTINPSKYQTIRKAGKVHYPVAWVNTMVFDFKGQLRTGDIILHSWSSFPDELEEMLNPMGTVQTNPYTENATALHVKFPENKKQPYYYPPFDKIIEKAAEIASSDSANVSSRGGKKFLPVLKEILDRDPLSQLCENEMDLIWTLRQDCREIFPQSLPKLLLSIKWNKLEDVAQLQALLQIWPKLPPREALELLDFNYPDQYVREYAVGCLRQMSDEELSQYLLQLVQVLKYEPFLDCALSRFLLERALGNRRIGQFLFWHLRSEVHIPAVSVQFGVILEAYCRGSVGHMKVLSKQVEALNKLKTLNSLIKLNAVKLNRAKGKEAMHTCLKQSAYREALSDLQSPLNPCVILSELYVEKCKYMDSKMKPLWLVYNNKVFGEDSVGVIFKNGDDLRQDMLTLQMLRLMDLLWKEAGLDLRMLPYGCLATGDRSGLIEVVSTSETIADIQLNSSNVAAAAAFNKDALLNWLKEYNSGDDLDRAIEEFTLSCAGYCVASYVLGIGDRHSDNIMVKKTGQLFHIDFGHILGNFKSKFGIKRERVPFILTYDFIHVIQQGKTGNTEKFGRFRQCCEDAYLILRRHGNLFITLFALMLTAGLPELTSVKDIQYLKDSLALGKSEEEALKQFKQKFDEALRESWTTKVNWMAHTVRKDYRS
Chain of PI3Kβ (P27986 whole entry partner): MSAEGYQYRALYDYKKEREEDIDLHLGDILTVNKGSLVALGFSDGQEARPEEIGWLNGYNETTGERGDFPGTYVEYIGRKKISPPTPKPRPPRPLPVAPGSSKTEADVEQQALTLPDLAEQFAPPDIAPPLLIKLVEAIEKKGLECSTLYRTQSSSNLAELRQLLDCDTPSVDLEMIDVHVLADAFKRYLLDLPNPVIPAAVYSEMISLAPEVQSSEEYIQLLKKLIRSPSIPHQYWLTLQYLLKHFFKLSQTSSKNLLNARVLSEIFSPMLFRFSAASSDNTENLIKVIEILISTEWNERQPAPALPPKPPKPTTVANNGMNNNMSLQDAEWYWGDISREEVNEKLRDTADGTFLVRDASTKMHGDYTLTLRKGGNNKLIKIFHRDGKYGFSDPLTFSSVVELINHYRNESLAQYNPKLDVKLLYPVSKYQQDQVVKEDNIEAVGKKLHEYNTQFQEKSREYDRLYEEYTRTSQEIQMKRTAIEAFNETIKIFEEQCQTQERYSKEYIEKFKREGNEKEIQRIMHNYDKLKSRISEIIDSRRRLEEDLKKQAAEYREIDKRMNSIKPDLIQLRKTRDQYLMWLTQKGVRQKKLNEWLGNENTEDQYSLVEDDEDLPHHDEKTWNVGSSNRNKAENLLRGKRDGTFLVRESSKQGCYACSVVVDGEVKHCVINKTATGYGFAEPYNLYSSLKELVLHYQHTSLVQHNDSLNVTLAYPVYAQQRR

Regarding `CC(Nc1cc(F)cc(F)c1)c1cc(C(=O)N(C)CCO)cc2c(=O)cc(N3CCOCC3)oc12` (stereo not shown) [Example 4.07, 8-(1-(3,5-difluorophenylamino)ethyl)-N-(2-hydroxyethyl)-N-methyl-2-morpholino-4-oxo-4H-chromene-6-carboxamide], the IC50 was found to be 4 nM.
As to `CC(Nc1cc(F)cc(F)c1)c1cc(C(=O)N2CCC(O)CC2)cc2c(=O)cc(N3CCOCC3)oc12` (stereo not shown) [Example 4.09, 8-(1-(3,5-difluorophenylamino)ethyl)-6-(4-hydroxypiperidine-1-carbonyl)-2-morpholino-4H-chromen-4-one], the IC50 came to 3 nM.
The same measure for `CC(Nc1cc(F)cc(F)c1)c1cc(C(=O)N2CCCCC2)cc2c(=O)cc(N3CCOCC3)oc12` (stereo not shown) [Example 4.10, 8-(1-(3,5-difluorophenylamino)ethyl)-2-morpholino-6-(piperidine-1-carbonyl)-4H-chromen-4-one]: 5 nM; for `CCN(C)C(=O)c1cc(C(C)Nc2cc(F)cc(F)c2)c2oc(N3CCOCC3)cc(=O)c2c1` (stereo not shown) [Example 4.11, 8-(1-(3,5-difluorophenylamino)ethyl)-N-ethyl-N-methyl-2-morpholino-4-oxo-4H-chromene-6-carboxamide]: 2 nM.
As for `CC(Nc1cc(F)cc(F)c1)c1cc(C(=O)N2CC(O)C2)cc2c(=O)cc(N3CCOCC3)oc12` (stereo not shown) [Example 4.12, 8-(1-(3,5-difluorophenylamino)ethyl)-6-(3-hydroxyazetidine-1-carbonyl)-2-morpholino-4H-chromen-4-one], the IC50 worked out at 4 nM.
With `CC(Nc1cc(F)cc(F)c1)c1cc(C(=O)N2CC(F)C2)cc2c(=O)cc(N3CCOCC3)oc12` (stereo not shown) [Example 4.13, 8-(1-(3,5-difluorophenylamino)ethyl)-6-(3-fluoroazetidine-1-carbonyl)-2-morpholino-4H-chromen-4-one], the 50% inhibitory concentration (IC50) is 9 nM.
Then `CC(Nc1cc(F)cc(F)c1)c1cc(C(=O)NCCO)cc2c(=O)cc(N3CCOCC3)oc12` (stereo not shown) [Example 4.14, 8-(1-(3,5-difluorophenylamino)ethyl)-N-(2-hydroxyethyl)-2-morpholino-4-oxo-4H-chromene-6-carboxamide], with 4 nM; and `COCCNC(=O)c1cc(C(C)Nc2cc(F)cc(F)c2)c2oc(N3CCOCC3)cc(=O)c2c1` (stereo not shown) [Example 4.15, 8-(1-(3,5-difluorophenylamino)ethyl)-N-(2-methoxyethyl)-2-morpholino-4-oxo-4H-chromene-6-carboxamide], with 4 nM; and `CCCNC(=O)c1cc(C(C)Nc2cc(F)cc(F)c2)c2oc(N3CCOCC3)cc(=O)c2c1` (stereo not shown) [Example 4.16, 8-(1-(3,5-difluorophenylamino)ethyl)-2-morpholino-4-oxo-N-propyl-4H-chromene-6-carboxamide], with 9 nM.
Then `CCNC(=O)c1cc(C(C)Nc2cc(F)cc(F)c2)c2oc(N3CCOCC3)cc(=O)c2c1` (stereo not shown) [Example 4.17, 8-(1-(3,5-difluorophenylamino)ethyl)-N-ethyl-2-morpholino-4-oxo-4H-chromene-6-carboxamide], with 5 nM; and `CC(Nc1cc(F)cc(F)c1)c1cc(C(=O)NCCF)cc2c(=O)cc(N3CCOCC3)oc12` (stereo not shown) [Example 4.18, 8-(1-(3,5-difluorophenylamino)ethyl)-N-(2-fluoroethyl)-2-morpholino-4-oxo-4H-chromene-6-carboxamide], with 4 nM.
Then `COCCCNC(=O)c1cc(C(C)Nc2cc(F)cc(F)c2)c2oc(N3CCOCC3)cc(=O)c2c1` (stereo not shown) [Example 4.19, 8-(1-(3,5-difluorophenylamino)ethyl)-N-(3-methoxypropyl)-2-morpholino-4-oxo-4H-chromene-6-carboxamide], with 23 nM; and `CC(Nc1cc(F)cc(F)c1)c1cc(C(=O)N2CCC[C@@H]2CO)cc2c(=O)cc(N3CCOCC3)oc12` (stereo partly drawn) [Example 4.20, 8-(1-(3,5-difluorophenylamino)ethyl)-6-((R)-2-(hydroxymethyl)pyrrolidine-1-carbonyl)-2-morpholino-4H-chromen-4-one], with 5 nM.
Take `CC(Nc1cc(F)cc(F)c1)c1cc(C(=O)N2CCC[C@H]2CO)cc2c(=O)cc(N3CCOCC3)oc12` (stereo partly drawn) [Example 4.21, 8-(1-(3,5-difluorophenylamino)ethyl)-6-((S)-2-(hydroxymethyl)pyrrolidine-1-carbonyl)-2-morpholino-4H-chromen-4-one]: the concentration for half-maximal inhibition (IC50) was 4 nM.
Regarding `CNC(=O)c1cc(C(C)Nc2cc(F)cc(F)c2)c2oc(N3CCOCC3)cc(=O)c2c1` (stereo not shown) [Example 4.22, 8-(1-(3,5-difluorophenylamino)ethyl)-N-methyl-2-morpholino-4-oxo-4H-chromene-6-carboxamide], the IC50 was 4 nM.
As for `CC(Nc1cc(F)cc(F)c1)c1cc(C(=O)NCC2CC2)cc2c(=O)cc(N3CCOCC3)oc12` (stereo not shown) [Example 4.23, N-(cyclopropylmethyl)-8-(1-(3,5-difluorophenylamino)ethyl)-2-morpholino-4-oxo-4H-chromene-6-carboxamide], the IC50 is 3 nM.
The same measure for `COCCN(C)C(=O)c1cc(C(C)Nc2cc(F)cc(F)c2)c2oc(N3CCOCC3)cc(=O)c2c1` (stereo not shown) [Example 4.24, 8-(1-(3,5-difluorophenylamino)ethyl)-N-(2-methoxyethyl)-N-methyl-2-morpholino-4-oxo-4H-chromene-6-carboxamide]: 4 nM; for `CC(Nc1cc(F)cc(F)c1)c1cc(C(=O)N2CCCOCC2)cc2c(=O)cc(N3CCOCC3)oc12` (stereo not shown) [Example 4.25, 8-(1-(3,5-difluorophenylamino)ethyl)-2-morpholino-6-(1,4-oxazepane-4-carbonyl)-4H-chromen-4-one]: 5 nM.
As for `COC1CCN(C(=O)c2cc(C(C)Nc3cc(F)cc(F)c3)c3oc(N4CCOCC4)cc(=O)c3c2)CC1` (stereo not shown) [Example 4.26, 8-(1-(3,5-difluorophenylamino)ethyl)-6-(4-methoxypiperidine-1-carbonyl)-2-morpholino-4H-chromen-4-one], the IC50 stood at 4 nM.
For `CC(c1cc(C(=O)N2CCC(O)CC2)cc2c(=O)cc(N3CCOCC3)oc12)N(C)c1cc(F)cc(F)c1` (stereo not shown) [Example 5.01, 8-(1-((3,5-difluorophenyl)(methyl)amino)ethyl)-6-(4-hydroxypiperidine-1-carbonyl)-2-morpholino-4H-chromen-4-one], the IC50 amounted to 8 nM.
Regarding `CC(c1cc(C(=O)N2CCC(O)C2)cc2c(=O)cc(N3CCOCC3)oc12)N(C)c1cc(F)cc(F)c1` (stereo not shown) [Example 5.02, 8-(1-((3,5-difluorophenyl)(methyl)amino)ethyl)-6-(3-hydroxypyrrolidine-1-carbonyl)-2-morpholino-4H-chromen-4-one], the concentration for half-maximal inhibition (IC50) was found to be 7 nM.
`CC(c1cc(C(=O)N2CCC[C@@H]2CO)cc2c(=O)cc(N3CCOCC3)oc12)N(C)c1cc(F)cc(F)c1` (stereo partly drawn) [Example 5.03, 8-(1-((3,5-difluorophenyl)(methyl)amino)ethyl)-6-((R)-2-(hydroxymethyl)pyrrolidine-1-carbonyl)-2-morpholino-4H-chromen-4-one]: the IC50 was found to be 7 nM.
The same measure for `CC(c1cc(C(=O)N2CCCC2)cc2c(=O)cc(N3CCOCC3)oc12)N(C)c1cc(F)cc(F)c1` (stereo not shown) [Example 6.0, 8-(1-((3,5-difluorophenyl)(methyl)amino)ethyl)-2-morpholino-6-(pyrrolidine-1-carbonyl)-4H-chromen-4-one]: 5 nM.
Turning to `CC(Nc1ccc(F)cc1)c1cc(C(=O)N(C)C)cc2c(=O)cc(N3CCO[C@H](C)C3)oc12` (stereo partly drawn) [Example 9.0, 8-(1-(4-fluorophenylamino)ethyl)-N,N-dimethyl-2-((R)-2-methylmorpholino)-4-oxo-4H-chromene-6-carboxamide], the IC50 amounted to 5 nM.
For the compound `CC(Nc1cc(F)cc(F)c1)c1cc(C(=O)N(C)C)cc2c(=O)cc(N3CCO[C@H](C)C3)oc12` (stereo partly drawn) [Example 9.01, 8-(1-(3,5-difluorophenylamino)ethyl)-N,N-dimethyl-2-((R)-2-methylmorpholino)-4-oxo-4H-chromene-6-carboxamide], the IC50 came to 4 nM.
Consider `CC(Nc1cc(F)cc(F)c1)c1cc(C(=O)N(C)C)cc2c(=O)cc(N3CCO[C@@H](C)C3)oc12` (stereo partly drawn) [Example 9.02, 8-(1-(3,5-difluorophenylamino)ethyl)-N,N-dimethyl-2-((S)-2-methylmorpholino)-4-oxo-4H-chromene-6-carboxamide], for which the IC50 worked out at 11 nM.
For the compound `CC(c1cc(C(=O)N(C)C)cc2c(=O)cc(N3CCO[C@H](C)C3)oc12)N(C)c1cc(F)cc(F)c1` (stereo partly drawn) [Example 10.01, 8-(1-((3,5-difluorophenyl)(methyl)amino)ethyl)-N,N-dimethyl-2-((R)-2-methylmorpholino)-4-oxo-4H-chromene-6-carboxamide], the IC50 came out at 12 nM.
On to `CC(c1cc(C(=O)N(C)CCO)cc2c(=O)cc(N3CCO[C@H](C)C3)oc12)N(C)c1cc(F)cc(F)c1` (stereo partly drawn) [Example 10.02, 8-(1-((3,5-difluorophenyl)(methyl)amino)ethyl)-N-(2-hydroxyethyl)-N-methyl-2-((R)-2-methylmorpholino)-4-oxo-4H-chromene-6-carboxamide], for which the IC50 amounted to 11 nM.
